Reference: publication PMC10609081, “In Vivo Trafficking of the Anticancer Drug Tris(8-Quinolinolato) Gallium (III) (KP46) by Gallium-68/67 PET/SPECT Imaging” (Molecules, 2023)

Legend:
[1] = Distribution/partition coefficients (logD, logP), shake flask with gamma counting; assay type: physicochemical; settings: tracer level, mean ± SD
Procedure: Tracer-level [^68Ga]KP46 and [^68Ga]Ga-acetate solutions (5–20 µL, 0.3–0.5 MBq) were added to a pre-equilibrated mixture (500 µL/500 µL) of octanol/water (for logP measurement) or octanol/PBS (for logD7.4 measurement). Samples were vortexed for two minutes in a Multi Vortex Mixer V-32 (Grant Bio). From each layer, a sample of 200 µL was taken and its radioactivity measured using a gamma counter.

[2] = target: T1, human serum albumin (HSA) (Homo sapiens, UniProt P02768); experiment: Binding to human serum albumin by size exclusion chromatography (PD MidiTrap G-25); assay type: in vitro ADME
T1 construct: purchased Sigma Aldrich
T1 sequence (P02768 25-609): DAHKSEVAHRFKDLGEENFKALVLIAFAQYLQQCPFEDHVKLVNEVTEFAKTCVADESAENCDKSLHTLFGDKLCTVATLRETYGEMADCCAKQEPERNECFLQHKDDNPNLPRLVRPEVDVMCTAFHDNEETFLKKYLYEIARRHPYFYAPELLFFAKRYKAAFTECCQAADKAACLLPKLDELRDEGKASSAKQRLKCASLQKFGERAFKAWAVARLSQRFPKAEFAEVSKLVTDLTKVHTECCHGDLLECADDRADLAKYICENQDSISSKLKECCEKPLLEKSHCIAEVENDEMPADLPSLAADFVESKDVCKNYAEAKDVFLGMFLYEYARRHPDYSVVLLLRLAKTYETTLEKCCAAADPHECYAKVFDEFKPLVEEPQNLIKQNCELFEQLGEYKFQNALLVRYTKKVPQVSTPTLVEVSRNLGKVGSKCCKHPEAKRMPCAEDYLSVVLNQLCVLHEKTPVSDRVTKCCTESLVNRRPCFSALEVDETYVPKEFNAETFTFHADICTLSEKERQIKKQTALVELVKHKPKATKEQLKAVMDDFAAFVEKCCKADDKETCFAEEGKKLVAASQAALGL
Procedure: Solutions of human apo-transferrin (apo-Tf, 2 mg/mL) and human serum albumin (HSA, 50 mg/mL) (both purchased from Sigma Aldrich) were dissolved in aqueous NaHCO3 (5 mM, pH = 8) and PBS (pH = 7.4), respectively. An amount of 1 MBq of tracer-level [^68Ga]KP46 (13–20 µL) or [^68Ga]gallium acetate (20–25 µL) was added to 1.2 mL of the apo-Tf solution and to a similar apo-Tf-free NaHCO3 solution (control). Similarly, [^68Ga]KP46 and [^68Ga]gallium acetate solutions were added to 1.5 mL PBS containing HSA or HSA-free PBS (control). The samples were incubated for 60 min at 37 °C (pH = 7–7.5). From each mixture, 0.5 mL was loaded into PD MidiTrap G-25 size exclusion chromatography cartridges that were preconditioned with 8 mL of NaHCO3 (5 mM) (for apo-Tf binding) or PBS (for HSA binding). Fractions (0.5 mL) were collected and counted with a Wallac gamma counter. Protein absorbance at 280 nm was measured using a Nanodrop spectrophotometer. To investigate the speciation of the Ga–KP46 complex in the presence of apo-Tf at later time points (up to 48 h), the experiment was repeated with ^67Ga.

[3] = tested on: A375 (human melanoma) cells; experiment: Cellular uptake of radiogallium in cultured A375 cells; assay type: cell-based; settings: 1 h
Procedure: One million A375 (human melanoma) cells were suspended in 0.5 mL of Dulbecco’s Modified Eagle’s Medium (500 mL DMEM, low-glucose medium with 50 mL 10% FBS, 5 mL of L-glutamine, and 5 mL of penicillin and streptomycin) in 1.5 mL Eppendorf tubes. An amount of 10 µL of no-carrier-added [^68Ga]KP46 or [^68Ga]gallium acetate was added to the cell suspensions (giving a ^68Ga concentration of ca. 20 pM) and to similar tubes containing medium but no cells (to check and compensate for adhesion of radioactivity to tubes). Samples were incubated for 60 min at 37 °C under 5% CO2 and then centrifuged (Sci Spin Mini) for three minutes at 1500 RPM. The supernatants were transferred to fresh Eppendorf tubes. The pellets were washed twice with 0.5 mL PBS, following the same centrifugation protocol, and washes were added to the supernatant tubes. Supernatants and cell pellets were measured using a gamma counter to determine the average activity in cell pellets as a % of the total activity for each sample. The intracellular-to-extracellular ^68Ga concentration ratio was also estimated by correcting for the different volume of supernatant and cell pellet using an estimated spherical cell diameter of 17.5 μm, which leads to an estimated volume of the cell pellet (10^6 cells) of 2.8 μL.

[4] = PET imaging and ex vivo biodistribution 4 h after intravenous injection, NSG mice bearing A375 xenografts (groups A, B); assay type: in vivo; settings: i.v., tracer level
Procedure: All animal experiments were performed in accordance with the Animals (Scientific Procedures) Act, 1986, with protocols approved by the Animal Welfare and Ethical Review Body for King’s College London under project and personal licences approved by the UK Home Office. Tumour xenograft studies were performed on female NSG mice or female athymic nude mice after injecting them subcutaneously in the right shoulder with 2.5 × 10^6 A375 cells in 100 µL of PBS. All in vivo studies were conducted between 14 and 24 days after inoculation, with tumour volumes between 100 mm^3 and 580 mm^3 (see Supplementary Materials, Figure S11).
Intravenous [^68Ga]gallium acetate and [^68Ga]KP46: NSG mice bearing A375 xenografts were fasted for 12–14 h before the start of the experiment. Mice were anaesthetised with isoflurane and injected with tracer level [^68Ga]gallium acetate (group A, n = 5) or [^68Ga]KP46 (group B, n = 5) (13–18 MBq, <200 μL) via the tail vein. […] The organs were harvested, weighed, and gamma counted. […]
PET/CT images were acquired with a nanoScan® PET/CT (Mediso Medical Imaging Systems, Budapest, Hungary) scanner operating in list mode using a 400–600 keV energy window and a coincidence window of 1:3. […] The data were then visualised and quantified using VivoQuant^© v.2.50 (InviCro, Boston, MA, USA) software. […] Images were coregistered and analysed using VivoQuant v2.50 (InviCro, Needham, MA, USA).

Structure (SMILES): [68Ga+3].[O-]c1cccc2cccnc12.[O-]c1cccc2cccnc12.[O-]c1cccc2cccnc12 [[^68Ga]KP46]
- logD(octanol/PBS) ([1]; octanol/PBS): 1.90 ± 0.19
- logP(octanol/water) ([1]; octanol/water): 2.33 ± 0.28
- radioactivity coeluting with HSA ([2]; 1 h incubation at 37 °C, HSA 50 mg/mL in PBS): about 16%
- binding of radioactivity to HSA ([2]; incubated 1 h with HSA): significant binding
- cellular uptake (% radioactivity added, corrected for nonspecific binding to vessel) ([3]; DMEM containing FBS, n = 3): 2.55% ± 1%
- intracellular-to-extracellular concentration ratio ([3]; corrected data, estimated cell pellet volume 2.8 μL): 14 ± 6
- tumour uptake, ex vivo biodistribution ([4]; 4 h, n = 5): 2.6 ± 0.9 %ID/g
- tumour uptake of 68Ga by PET/CT ([4]; by four hours): no visible tumour accumulation
